From ChEMBL document CHEMBL1201862, “PubChem BioAssay data set” (2004)
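Growth conditions: 96-well plates. Treatment: test compound, 48 hours, 5 concentrations. Analysis: linear interpolation between bracketing concentrations; unreached endpoints set to highest concentration. The concentration for 50% growth inhibition is given as GI50.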 Active and inactive are the calls of the source. Rule as the data show it: active = GI50 up to about 1.1 µM and inactive = higher.

Experiments:
Experiment in all cases: DTP human tumour cell line panel, 48 h
HCT-15 = tested on: HCT-15
IGROV-1 = tested on: IGROV-1
RXF 393 = tested on: RXF 393
MDA-MB-231 = tested on: MDA-MB-231
HOP-92 = tested on: HOP-92
HL-60 = tested on: HL-60
CAKI-1 = tested on: CAKI-1
A498 = tested on: A498
MDA-N = tested on: MDA-N
SK-OV-3 = tested on: SK-OV-3
BT-549 = tested on: BT-549
A549 = tested on: A549
U-251 = tested on: U-251
OVCAR-5 = tested on: OVCAR-5
RPMI-8226 = tested on: RPMI-8226
UACC-257 = tested on: UACC-257
SF-539 = tested on: SF-539
TK-10 = tested on: TK-10

SMILES	GI50 (HCT-15) [µM]	GI50 (IGROV-1)	GI50 (RXF 393)	GI50 (MDA-MB-231)	GI50 (HOP-92)	GI50 (HL-60)	GI50 (CAKI-1)	GI50 (A498)	GI50 (MDA-N)	GI50 (SK-OV-3)	GI50 (BT-549)	GI50 (A549)	GI50 (U-251)	GI50 (OVCAR-5)	GI50 (RPMI-8226)	GI50 (UACC-257)	GI50 (SF-539)	GI50 (TK-10)
CC[C@@H]1/C=C/C=C/C[C@H](C)[C@@H](O)[C@](C)(O)C(=O)[C@H](C)[C@@H](O)[C@H](C)C(=O)[C@H](C)[C@@H](O)[C@H](C)/C=C/C(=O)O[C@H]2[C@@H](C)[C@@H](CC1)O[C@]1(O[C@H](CC(C)O)[C@H](C)CC1=O)[C@@H]2C (some centres not stated)	3.28	5.22 µM (inactive)	3.6 µM (inactive)	3.72 µM (inactive)	4.23 µM (inactive)	0.107 µM (active)	3.96 µM (inactive)	0.108 µM (active)	3.35 µM (inactive)	5.66 µM (inactive)	3.75 µM (inactive)	< 0.0025 µM (active)	< 0.0025 µM (active)	3.3 µM (inactive)	< 0.0025 µM (active)	< 0.0025 µM (active)	4.41 µM (inactive)	1.22 µM (inactive)
COc1cc(OC)c(/C=C/c2cnc3ccccc3n2)c(OC)c1	> 10	> 10 µM (inactive)	> 10 µM (inactive)	> 10 µM (inactive)	> 10 µM (inactive)	> 10 µM (inactive)	> 10 µM (inactive)	> 10 µM (inactive)	> 10 µM (inactive)	> 10 µM (inactive)	> 10 µM (inactive)	> 10 µM (inactive)	> 10 µM (inactive)	> 10 µM (inactive)	> 10 µM (inactive)	> 10 µM (inactive)	> 10 µM (inactive)	> 10 µM (inactive)
C1C2CC3CC1CC(Nc1nc(NC45CC6CC(CC(C6)C4)C5)nc(NC45CC6CC(CC(C6)C4)C5)n1)(C2)C3	62.1		39 µM (inactive)	> 100 µM (inactive)	> 100 µM (inactive)	39.3 µM (inactive)	> 100 µM (inactive)	> 51.4 µM (inactive)	74.3 µM (inactive)	> 100 µM (inactive)	> 68.2 µM (inactive)	> 53 µM (inactive)	43.8 µM (inactive)	> 92.3 µM (inactive)	24.5 µM (inactive)	> 28.8 µM (inactive)	> 100 µM (inactive)	> 60 µM (inactive)
CCOP(=O)(OCC)C(c1ccc(F)cc1)N(C(=O)NC(F)(F)F)c1cccc(C(F)(F)F)c1 (configuration not stated)	> 100	65.8 µM (inactive)	52.8 µM (inactive)	> 100 µM (inactive)	33.2 µM (inactive)	43.9 µM (inactive)	> 100 µM (inactive)	> 100 µM (inactive)	> 100 µM (inactive)	> 100 µM (inactive)	> 100 µM (inactive)	82.2 µM (inactive)	> 100 µM (inactive)	> 100 µM (inactive)	63 µM (inactive)	> 100 µM (inactive)	> 100 µM (inactive)	> 100 µM (inactive)
COc1cc(C2C3=C(COC3=O)Oc3cc4c(cc32)OCO4)ccc1OC(C)=O (configuration not stated)	0.468	0.238 µM (active)	0.67 µM (active)	0.436 µM (active)	6 µM (inactive)	0.188 µM (active)	0.303 µM (active)	1.53 µM (inactive)	0.0467 µM (active)	0.334 µM (active)	0.222 µM (active)	0.957 µM (active)	0.492 µM (active)	5.22 µM (inactive)	0.34 µM (active)	> 100 µM (inactive)	0.25 µM (active)	> 100 µM (inactive)
[N-]=[N+]=CC(=O)OC1Cc2ccccc2C1	> 100	> 100 µM (inactive)	> 42.6 µM (inactive)	> 100 µM (inactive)	69.7 µM (inactive)	> 100 µM (inactive)	1 µM (active)	> 100 µM (inactive)	> 100 µM (inactive)	> 100 µM (inactive)	> 100 µM (inactive)	84.3 µM (inactive)	> 100 µM (inactive)	73.1 µM (inactive)	> 100 µM (inactive)	> 100 µM (inactive)	> 100 µM (inactive)	97.3 µM (inactive)
O=C(CN1CCOCC1)CC(O)(C(F)(F)F)C(F)(F)F	55.5	71.8 µM (inactive)	20.1 µM (inactive)	> 100 µM (inactive)	29.6 µM (inactive)	61.7 µM (inactive)	78.3 µM (inactive)	> 100 µM (inactive)	> 100 µM (inactive)	> 100 µM (inactive)	> 100 µM (inactive)	> 100 µM (inactive)	51.4 µM (inactive)	> 100 µM (inactive)	55.2 µM (inactive)	> 100 µM (inactive)	> 100 µM (inactive)	> 100 µM (inactive)
COC(=O)C1c2cc3c(cc2C(OC2OC(C)C(OC)C(C)(OC)C2OC)CC1(C)O)C(=O)c1c(O)cc2c(c1C3=O)OC1OC2(C)C(O)C([N+](C)(C)[O-])C1O (configuration not stated)	2.78	0.0791 µM (active)	0.179 µM (active)	0.469 µM (active)	0.144 µM (active)	0.286 µM (active)	0.938 µM (active)	0.184 µM (active)	0.0512 µM (active)	1.64 µM (inactive)	0.179 µM (active)	0.227 µM (active)	0.0386 µM (active)	1.48 µM (inactive)	0.122 µM (active)	0.182 µM (active)	0.0883 µM (active)	2.83 µM (inactive)
CC(=O)C1C(=O)C(C(C)=O)C2C3C=CC(C3)C12 (configuration not stated)	> 100	> 100 µM (inactive)	> 100 µM (inactive)	> 100 µM (inactive)	> 100 µM (inactive)	> 100 µM (inactive)	> 100 µM (inactive)	> 100 µM (inactive)	> 100 µM (inactive)	> 100 µM (inactive)	> 100 µM (inactive)	> 100 µM (inactive)	> 100 µM (inactive)	> 100 µM (inactive)	> 100 µM (inactive)	> 100 µM (inactive)	> 100 µM (inactive)	> 100 µM (inactive)
COc1ccc(/C=C2\CC3C4CC=C5C[C@@H](N6CCCC6)CC[C@]5(C)C4CC[C@]3(C)[C@H]2O)cc1OC (some centres not stated)	6.81	10.7 µM (inactive)	8.77 µM (inactive)	7.85 µM (inactive)	10.7 µM (inactive)	14.4 µM (inactive)	8.65 µM (inactive)	8.2 µM (inactive)	7.55 µM (inactive)	8.81 µM (inactive)	8.87 µM (inactive)	9.46 µM (inactive)	8.45 µM (inactive)	10.2 µM (inactive)	7.52 µM (inactive)	8.13 µM (inactive)	7.06 µM (inactive)	10.8 µM (inactive)
Brc1ccc2[nH]cc(-c3nc(-c4c[nH]c5ccccc45)cs3)c2c1	2.39	1.58 µM (inactive)	5.48 µM (inactive)	2.37 µM (inactive)	2.54 µM (inactive)	3.37 µM (inactive)	2.74 µM (inactive)	2.88 µM (inactive)	2.91 µM (inactive)	8.13 µM (inactive)	7.52 µM (inactive)	3.24 µM (inactive)	3.01 µM (inactive)	1.95 µM (inactive)	3.18 µM (inactive)	3.97 µM (inactive)	2.9 µM (inactive)	3.56 µM (inactive)
C=C(Cl)[C@](Cl)(CBr)CC[C@@H](Br)C(C)(C)Cl [HALOMON]	2.01	6.67 µM (inactive)	0.121 µM (active)	1.16 µM (inactive)	0.378 µM (active)	0.421 µM (active)	0.337 µM (active)	1.97 µM (inactive)	0.959 µM (active)	9.57 µM (inactive)	1.29 µM (inactive)	2.12 µM (inactive)	0.181 µM (active)	1.56 µM (inactive)	0.0607 µM (active)	1.4 µM (inactive)	0.562 µM (active)	1.81 µM (inactive)
COc1cc(C(c2c(O)c3ccccc3oc2=O)c2c(O)c3ccccc3oc2=O)ccc1O	17.4	11.3 µM (inactive)	18 µM (inactive)	21.1 µM (inactive)	14.6 µM (inactive)	24.7 µM (inactive)	20.8 µM (inactive)	51.9 µM (inactive)	19.9 µM (inactive)	> 100 µM (inactive)	19.1 µM (inactive)	59.7 µM (inactive)	22.9 µM (inactive)	18.7 µM (inactive)	34.6 µM (inactive)	19.1 µM (inactive)	23.3 µM (inactive)	20.3 µM (inactive)
CC(=O)Oc1c(C)c2c(O)c3c1C1=C(OCOC1=C(C)C3=O)/C(C)=C/C(C)(O)C(O)C(C)C(O)C1C(=O)OC(C(C)C1O)C(C)(O)/C=C\C=C(C)C(=O)N2 (configuration not stated)	48.9	5.66 µM (inactive)	18.5 µM (inactive)	21.5 µM (inactive)	20.7 µM (inactive)	3.25 µM (inactive)	17.1 µM (inactive)	15.1 µM (inactive)	> 100 µM (inactive)	35.5 µM (inactive)	19.7 µM (inactive)	76 µM (inactive)	39.7 µM (inactive)	4.46 µM (inactive)	86.9 µM (inactive)	> 100 µM (inactive)	10.4 µM (inactive)	
CS(=O)(=O)O[C@H]1[C@H](O)c2ccccc2[C@@H]1N=[N+]=[N-]	> 100	> 100 µM (inactive)	> 100 µM (inactive)	> 100 µM (inactive)	> 100 µM (inactive)	> 100 µM (inactive)	> 100 µM (inactive)	> 100 µM (inactive)	> 100 µM (inactive)	> 100 µM (inactive)	> 100 µM (inactive)	> 100 µM (inactive)	> 100 µM (inactive)	> 100 µM (inactive)	> 100 µM (inactive)	> 100 µM (inactive)	> 100 µM (inactive)	
